pIC50: −log10 of the molar value.
Experiments:
[1] = tested on: M. marinum in BV2 microglial cells; type: cell-based, Mycobacterium marinum
M. marinum luxCDABE = type: cell-based, Mycobacterium marinum
[2] = tested on: M. marinum in A. castellanii; type: cell-based, Mycobacterium marinum
Mtb H37Rv = tested on: Mtb H37Rv; parameters: method as in Sorrentino et al, 2015; conditions: ref Sorrentino et al, 2015; cited from earlier work
Mtb H37Rv in THP-1 = tested on: Mtb H37Rv in THP-1; parameters: method as in Sorrentino et al, 2015; conditions: ref Sorrentino et al, 2015, cited from earlier work; for Intracelullar MIC90 in THP-1: THP1 / Mtb H37Rv infection assay; for Extracellular MIC90/ Inracellular MIC90: ratio
M. marinum GFP = type: cell-based, Mycobacterium marinum; conditions: 10 µM; antibiotic assay

Row | SMILES | Intracellular infection assays: BV2 / M. marinum [1] | Antibiotic assays: M. marinum luxCDABE (M. marinum luxCDABE) | Growth inhibition / Cytotoxicity assays: D. discoideum GFP-ABD (D. discoideum GFP-ABD) | Intracellular infection assays: A. castellanii / M. marinum [2] | Extracellular MIC90 (Mtb H37Rv) | Intracelullar MIC90 in THP-1 (Mtb H37Rv in THP-1) | Extracellular MIC90/ Inracellular MIC90 (Mtb H37Rv in THP-1) | Growth inhibition / Cytotoxicity assays: BV2 cells (BV2 cells) | pIC50 [1] | BV2 / M. marinum normalised growth, control=1.00, mean ([1]; 10 µM) | M. marinum luxCDABE normalised growth, control=1.00, mean (M. marinum luxCDABE; 10 µM) | D. discoideum GFP-ABD normalised growth, control=1.00, mean (D. discoideum GFP-ABD; 10 µM) | M. marinum GFP normalised growth, control=1.00, mean (M. marinum GFP) | A. castellanii / M. marinum normalised growth, control=1.00, mean ([2]; 10 µM)
1 | Cc1cc(NCCc2ccccc2)nc(/N=C(\N)Nc2ccc(Cl)cc2)n1 [CCI7967] | 1.01 | 0.00 | 0.89 | 1.16 | 2.4 µM | 0.61 µM | 3.93 | False |  |  |  |  |  | 
2 | N=C(N)c1ccc(CCN2CCC(c3nc(COCC(F)(F)F)c(-c4ccc(F)cc4)o3)CC2)cc1.O=C(O)C(F)(F)F.O=C(O)C(F)(F)F [GI247341A] | 1.21 | 0.00 | 0.77 | 1.18 |  |  |  | False |  |  |  |  |  | 
3 | Cc1cc(OCC(=O)NCc2ccccc2)c2cc(Br)ccc2n1 [GSK124576A] | 1.05 | 0.00 | 0.91 | 1.13 | 2.3 µM | 5.55 µM | 0.41 | False |  |  |  |  |  | 
4 | O=C(Nc1nnc(-c2ccc(Cl)cc2)o1)c1cccc(C(F)(F)F)c1 [GSK130506A] | 1.46 | 0.00 | 1.07 | 1.05 | 5.6 µM | 16.65 µM | 0.34 | False |  |  |  |  |  | 
5 | Cc1cccc(-c2nc(Nc3ccncn3)c3sccc3n2)n1 [GSK153890A] | 1.17 | 0.00 | 1.05 | 1.21 |  |  |  | False |  |  |  |  |  | 
6 | CC(C)(C)C(=O)CC1(O)Oc2ccccc2N=C1C=C(O)C(C)(C)C (stereo not drawn) [GSK262906A] | 1.68 | 1.00 | 0.89 | 1.04 |  |  |  | False |  |  |  |  |  | 
7 | O=C(Nc1nnc(-c2ccc(Cl)s2)o1)c1ccc(Cl)s1 [GSK316438A] | 1.30 | 0.09 | 0.70 | 1.32 |  | >50 µM |  | False |  |  |  |  |  | 
8 | CCOc1ccc(OCc2ccc(C(=O)NNC(=O)c3ccc([N+](=O)[O-])o3)cc2)cc1 [GSK426032A] | 1.27 | 0.00 | 1.02 | 0.94 |  | >50 µM |  | False |  |  |  |  |  | 
9 | c1ccc(Cc2nnc(Sc3ccnc(N4CCN(c5ccncc5)CC4)n3)n2CCN2CCOCC2)cc1 [GSK547511A] | 1.36 | 0.13 | 1.02 | 0.94 |  | >50 µM |  | False |  |  |  |  |  | 
10 | c1ccc(-c2nnc(Sc3ccnc(N4CCN(c5ccncc5)CC4)n3)n2CCCN2CCOCC2)nc1 [GSK547543A] | 1.22 | 0.00 | 0.87 | 0.99 |  |  |  | False |  |  |  |  |  | 
11 | CCC(Sc1nc2ccccc2o1)C(=O)Nc1nccs1 (stereo not drawn) [GSK829969A] | 1.56 | 0.00 | 0.94 | 1.58 |  |  |  | True |  |  |  |  |  | 
12 | CN(C)S(=O)(=O)c1ccc(C(=O)Nc2nnc(-c3ccc(Cl)s3)o2)cc1 [GSK991960A] | 1.20 | 0.15 | 0.90 | 1.06 |  |  |  | False |  |  |  |  |  | 
13 | O=C(NC1=NCCS1)c1sc2cc(F)ccc2c1Cl [GSK1107112A] | 1.29 | 0.10 | 0.0367 | 0.90 |  |  |  | False |  |  |  |  |  | 
14 | O=C(c1cnn(C(=O)c2ccco2)c1)c1cc(F)ccc1O [GSK1310678A] | 1.17 | 0.00 | 1.12 | 0.98 |  |  |  | False |  |  |  |  |  | 
15 | NC(=O)c1cc(-c2ccsc2)ccc1OCCOc1ccccc1 [GSK1365028A] | 1.42 | 0.00 | 0.94 | 1.14 |  | >50 µM |  | False |  |  |  |  |  | 
16 | O=C(Cc1ccc(F)cc1)Nc1nc(-c2ccccn2)cs1 [GSK1570606A] | 1.05 | 0.00 | 0.06 | 1.21 |  | >50 µM |  | False |  |  |  |  |  | 
17 | CCc1c(C)nc(-n2nc(C)cc2NC(=O)c2ccccc2SC)[nH]c1=O [GSK1783710A] | 1.11 | 0.67 | 0.94 | 1.00 |  | >50 µM |  | False |  |  |  |  |  | 
18 | O=C(OCc1c(F)cccc1Cl)c1ccc(-n2ncc(Cl)c(Cl)c2=O)cc1 [GSK1826825A] | 1.71 | 0.13 | 1.04 | 0.95 |  |  |  | False |  |  |  |  |  | 
19 | O=C(CCCSc1ccccc1)NNC(=O)c1cccs1 [GSK2157753A] | 1.67 | 0.11 | 1.04 | 1.00 |  | >50 µM |  | False |  |  |  |  |  | 
20 | CCc1ccc(S(=O)(=O)Nc2cc(CN3CCN(CCC(C)C)CC3)ccc2C)cc1.O=C(O)C(F)(F)F.O=C(O)C(F)(F)F [SB-811137-V] |  |  |  |  | 4.7 µM | 5.55 µM | 0.85 |  | 5.23 | 0.85 | 0.18 | 0.88 | 0.94 | 1.15

Reference: article PMC5834492, “Antimycobacterial drug discovery using Mycobacteria-infected amoebae identifies anti-infectives and new molecular targets” (Scientific Reports, 2018)
